This is an account of results in US20240018145A1, “[…]-DEPENDENT EN[…] TREATING OR […]” (priority 2020, published 2024).

The subject of the first assay is FLU A (PR/8/34). The assay can be described thus: Flu A Neuraminidase Antiviral Assay.
Details: not given
It is filed as cell-based.
The EC50 is the concentration needed to bring the measured effect to its halfway point. In turn, `Cc1ccccc1C1N2C(CCC13CC1C(C3)C1(F)F)N(C)C(=O)c1c(O)c(=O)ccn12` (single isomer, unassigned) [Compound 69B, 6,6-difluoro-7′-hydroxy-5′-methyl-1′-(o-tolyl)-3′,4′,4a′,5′-tetrahydro-1′H-spiro[bicyclo[3.1.0]hexane-3,2′-dipyrido[1,2-b:2′,1′-f][1,2,4]triazine]-6′,8′-dione] came in with an EC50 of 0.057 µM. In turn, `CN1C(=O)c2c(O)c(=O)ccn2N2C(c3ccccc3Cl)C(CC(F)(F)F)CCC12` (single isomer, unassigned) [Compound 119A, 1-(2-chlorophenyl)-7-hydroxy-5-methyl-2-(2,2,2-trifluoroethyl)-1,2,3,4,4a,5-hexahydrodipyrido[1,2-b:2′,1′-f][1,2,4]triazine-6,8-dione] had an EC50 of 3.08 µM.

In turn, `CN1C(=O)c2c(O)c(=O)ccn2N2C(c3ccccc3)C(CCC3CC3)CCC12` (single isomer, unassigned) [Compound 115C, 2-(2-cyclopropylethyl)-7-hydroxy-5-methyl-1-phenyl-1,2,3,4,4a,5-hexahydrodipyrido[1,2-b:2′,1′-f][1,2,4]triazine-6,8-dione] had an EC50 of 0.0027 µM. The molecule `Cc1cccc(F)c1C1C(CC(F)(F)F)CCC2N(C)C(=O)c3c(O)c(=O)ccn3N12` (single isomer, unassigned) [Compound 77D, 1-(2-fluoro-6-methylphenyl)-7-hydroxy-5-methyl-2-(2,2,2-trifluoroethyl)-1,2,3,4,4a,5-hexahydrodipyrido[1,2-b:2′,1′-f][1,2,4]triazine-6,8-dione] showed an EC50 of 0.0019 µM. Still for that read-out and setting: under `CCN1C(=O)c2c(O)c(=O)ccn2N2C1CCCC2(C)c1cccc(C)n1` (single isomer, unassigned) [Compound 53A, 5-ethyl-7-hydroxy-1-methyl-1-(6-methylpyridin-2-yl)-1,2,3,4,4a,5-hexahydrodipyrido[1,2-b:2′,1′-f][1,2,4]triazine-6,8-dione] stands > 0.81 µM; under `CC1(c2cc(C(F)(F)F)ccn2)CCCC2N(CC3(C(F)(F)F)CC3)C(=O)c3c(O)c(=O)ccn3N21` (single isomer, unassigned) [Compound 52A, 7-hydroxy-1-methyl-5-((1-(trifluoromethyl)cyclopropyl)methyl)-1-(4-(trifluoromethyl)pyridin-2-yl)-1,2,3,4,4a,5-hexahydrodipyrido[1,2-b:2′,1′-f][1,2,4]triazine-6,8-dione], 0.114 µM; under `Cc1cccc(C2(C)CCCC3N(CC(F)F)C(=O)c4c(O)c(=O)ccn4N32)n1` (single isomer, unassigned) [Compound 54B, 5-(2,2-difluoroethyl)-7-hydroxy-1-methyl-1-(6-methylpyridin-2-yl)-1,2,3,4,4a,5-hexahydrodipyrido[1,2-b:2′,1′-f][1,2,4]triazine-6,8-dione], 0.0249 µM. Same read-out and setting: under `CN1C(=O)c2c(O)c(=O)ccn2N2C(c3ccccc3F)C(CC(F)F)CCC12` (single isomer, unassigned) [Compound 113A, 2-(2,2-difluoroethyl)-1-(2-fluorophenyl)-7-hydroxy-5-methyl-1,2,3,4,4a,5-hexahydrodipyrido[1,2-b:2′,1′-f][1,2,4]triazine-6,8-dione] stands 3.45 µM; under `CN1C(=O)c2c(O)c(=O)ccn2C2C1CCCC2(O)c1ccccc1` (single isomer, unassigned) [Compound 165B, 1,7-dihydroxy-5-methyl-1-phenyl-1,3,4,4a,5,11a-hexahydro-2H-pyrido[1,2-a]quinoxaline-6,8-dione], > 8.1 µM. In turn, `CCN1C(=O)c2c(O)c(=O)ccn2N2C(c3ccccc3Br)C(CC(F)(F)F)CCC12` (single isomer, unassigned) [Compound 106A, 1-(2-bromophenyl)-5-ethyl-7-hydroxy-2-(2,2,2-trifluoroethyl)-1,2,3,4,4a,5-hexahydrodipyrido[1,2-b:2′,1′-f][1,2,4]triazine-6,8-dione] registered an EC50 of 0.0064 µM. The same measure, in the same setting: under `CC1(c2ccccn2)CCCC2N(CC(F)(F)F)C(=O)c3c(O)c(=O)ccn3N21` (single isomer, unassigned) [Compound 39A, 7-hydroxy-1-methyl-1-(pyridin-2-yl)-5-(2,2,2-trifluoroethyl)-1,2,3,4,4a,5-hexahydrodipyrido[1,2-b:2′,1′-f][1,2,4]triazine-6,8-dione] stands > 8.1 µM. Same read-out and setting: under `CN1C(=O)c2c(O)c(=O)ccn2N2C(c3ccccc3F)C(CC(F)(F)F)CCC12` (single isomer, unassigned) [Compound 127B, 1-(2-fluorophenyl)-7-hydroxy-5-methyl-2-(2,2,2-trifluoroethyl)-1,2,3,4,4a,5-hexahydrodipyrido[1,2-b:2′,1′-f][1,2,4]triazine-6,8-dione] stands 0.003 µM. The same measure, in the same setting: under `CN1C(=O)c2c(O)c(=O)ccn2N2C1CCC(C)(C)C2(C)c1ccccc1` (single isomer, unassigned) [Compound 35A, 7-hydroxy-1,2,2,5-tetramethyl-1-phenyl-1,2,3,4,4a,5-hexahydrodipyrido[1,2-b:2′,1′-f][1,2,4]triazine-6,8-dione] stands 0.138 µM.

`CC(C1CCC2N(C)C(=O)c3c(O)c(=O)ccn3N2C1c1ccccc1)C(F)(F)F` (single isomer, unassigned) [Compound 109A, 7-hydroxy-5-methyl-1-phenyl-2-(1,1,1-trifluoropropan-2-yl)-1,2,3,4,4a,5-hexahydrodipyrido[1,2-b:2′,1′-f][1,2,4]triazine-6,8-dione] came in with an EC50 of 0.803 µM. The molecule `CCc1ccccc1C1C(CC(F)(F)F)CCC2N(C)C(=O)c3c(O)c(=O)ccn3N12` (single isomer, unassigned) [Compound 112A, 1-(2-ethylphenyl)-7-hydroxy-5-methyl-2-(2,2,2-trifluoroethyl)-1,2,3,4,4a,5-hexahydrodipyrido[1,2-b:2′,1′-f][1,2,4]triazine-6,8-dione] had an EC50 of 0.0037 µM. In the case of `CN1C(=O)c2c(O)c(=O)ccn2N2C1CCC(C)(CC(F)(F)F)C2c1ccccc1` (single isomer, unassigned) [Compound 71A, 7-hydroxy-2,5-dimethyl-1-phenyl-2-(2,2,2-trifluoroethyl)-1,2,3,4,4a,5-hexahydrodipyrido[1,2-b:2′,1′-f][1,2,4]triazine-6,8-dione], the EC50 was 5.91 µM. On the same count and under the same terms, under `COc1ccccc1C1C(CC(F)(F)F)CCC2N(C)C(=O)c3c(O)c(=O)ccn3N12` (single isomer, unassigned) [Compound 125B, 7-hydroxy-1-(2-methoxyphenyl)-5-methyl-2-(2,2,2-trifluoroethyl)-1,2,3,4,4a,5-hexahydrodipyrido[1,2-b:2′,1′-f][1,2,4]triazine-6,8-dione] stands 0.0025 µM. On to `CN1C(=O)c2c(O)c(=O)ccn2N2C1CCC(O)C2(C)c1ccccc1` (stereo not drawn) [Compound 137B, 2,7-dihydroxy-1,5-dimethyl-1-phenyl-1,2,3,4,4a,5-hexahydrodipyrido[1,2-b:2′,1′-f][1,2,4]triazine-6,8-dione], for which the EC50 is > 8.1 µM.

In the case of `CN1C(=O)c2c(O)c(=O)ccn2N2C1CCC(C)(CC(F)(F)F)C2c1ccccc1` (single isomer, unassigned) [Compound 71B, 7-hydroxy-2,5-dimethyl-1-phenyl-2-(2,2,2-trifluoroethyl)-1,2,3,4,4a,5-hexahydrodipyrido[1,2-b:2′,1′-f][1,2,4]triazine-6,8-dione], the EC50 stood at 0.0185 µM.

On to `Cc1cc(=O)c(O)c2n1N1C(c3ccccc3)C(CC(F)(F)F)CCC1N(C)C2=O` (single isomer, unassigned) [Compound 132D, 7-hydroxy-5,10-dimethyl-1-phenyl-2-(2,2,2-trifluoroethyl)-1,2,3,4,4a,5-hexahydrodipyrido[1,2-b:2′,1′-f][1,2,4]triazine-6,8-dione], for which the EC50 is > 0.81 µM.

As for `CC1(c2ccccc2)CCCC2N(CC3CC4(CCC4)C3)C(=O)c3c(O)c(=O)ccn3N21` (single isomer, unassigned) [Compound 42A, 7-hydroxy-1-methyl-1-phenyl-5-(spiro[3.3]heptan-2-ylmethyl)-1,2,3,4,4a,5-hexahydrodipyrido[1,2-b:2′,1′-f][1,2,4]triazine-6,8-dione], the EC50 was > 8.1 µM. `Cc1cccc(F)c1C1C(CC(F)(F)F)CCC2N(C)C(=O)c3c(O)c(=O)ccn3N12` (single isomer, unassigned) [Compound 77C, 1-(2-fluoro-6-methylphenyl)-7-hydroxy-5-methyl-2-(2,2,2-trifluoroethyl)-1,2,3,4,4a,5-hexahydrodipyrido[1,2-b:2′,1′-f][1,2,4]triazine-6,8-dione]: the EC50 was > 0.81 µM. `CN1C(=O)c2c(O)c(=O)ccn2N2C(c3ccccc3)C(CCC3CC3)CCC12` (single isomer, unassigned) [Compound 115B, 2-(2-cyclopropylethyl)-7-hydroxy-5-methyl-1-phenyl-1,2,3,4,4a,5-hexahydrodipyrido[1,2-b:2′,1′-f][1,2,4]triazine-6,8-dione]: the EC50 is > 8.1 µM. On to `Cc1cccc(F)c1C1C(CC(F)(F)F)CCC2N(C)C(=O)c3c(O)c(=O)ccn3N12` (single isomer, unassigned) [Compound 77A, 1-(2-fluoro-6-methylphenyl)-7-hydroxy-5-methyl-2-(2,2,2-trifluoroethyl)-1,2,3,4,4a,5-hexahydrodipyrido[1,2-b:2′,1′-f][1,2,4]triazine-6,8-dione], for which the EC50 is 0.0033 µM.

Staying with this assay, now noted: MDCK, 48 h.
Regarding `COCCN1C(=O)c2c(O)c(=O)ccn2N2C(c3ccc(F)cc3)CCCC12` (single isomer, unassigned) [Compound 4A, 1-(4-fluorophenyl)-7-hydroxy-5-(2-methoxyethyl)-1,2,3,4,4a,5-hexahydrodipyrido[1,2-b:2′,1′-f][1,2,4]triazine-6,8-dione], the EC50 is > 8.1 µM. The same measure, in the same setting: under `CN1C(=O)c2c(O)c(=O)ccn2N2C1CCC1OCc3ccccc3C12C` (stereo not drawn) [Compound 148, 7-hydroxy-5,12a-dimethyl-2a,3,4,4a,5,12a-hexahydro-1H-isochromeno[3′,4′:5,6]pyrido[1,2-b]pyrido[2,1-f][1,2,4]triazine-6,8-dione] stands 0.038 µM; under `CN1C(=O)c2c(O)c(=O)ccn2N2[C@H](c3ccccc3)[C@H](OCC3CCC3)CC[C@@H]12` [Compound 160, (1R,2R,4aS)-2-(cyclobutylmethoxy)-7-hydroxy-5-methyl-1-phenyl-1,2,3,4,4a,5-hexahydrodipyrido[1,2-b:2′,1′-f][1,2,4]triazine-6,8-dione], 0.0181 µM.
